Test results reported in PubChem BioAssay AID330 (DTP/NCI, 2004).
Values joined by “and” are separate entries in the source; they are usually repeats but may differ in a detail not shown here. Identical values can stand only once. Toxic doses and inconclusive results are not listed. Peptide text beside a SMILES is read from it. * marks the point of attachment. Cbz = O=C(OCc1ccccc1)*

System: P388 leukemia ip, CD2F1 mice, survival T/C
Assay: NCI In Vivo Anticancer Drug Screen. Data for tumor model P388 Leukemia (intraperitoneal) in CD2F1 (CDF1) mice
Conditions: endpoint: median survival time, higher = longer survival
Procedure, shortened: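 Mice carrying the transplanted tumor received test compound or vehicle. Survival was recorded in each group, and the value is the treated-group measurement divided by that of the vehicle-treated control group.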

[1] = dose: 50.0 mg/kg/injection, schedule: Q01DX005 (ip), vehicle: saline with Tween-80
[2] = dose: 100.0 mg/kg/injection, schedule: Q01DX005 (ip), vehicle: saline with Tween-80
[3] = dose: 200.0 mg/kg/injection, schedule: Q01DX005 (ip), vehicle: saline with Tween-80
[4] = dose: 50.0 mg/kg/injection, schedule: Q01DX009 (ip), vehicle: saline with Tween-80
[5] = dose: 100.0 mg/kg/injection, schedule: Q01DX009 (ip), vehicle: saline with Tween-80
[6] = dose: 200.0 mg/kg/injection, schedule: Q01DX009 (ip), vehicle: saline with Tween-80
[7] = dose: 25.0 mg/kg/injection, schedule: Q04DX003 (ip), vehicle: saline
[8] = dose: 50.0 mg/kg/injection, schedule: Q01DX009 (ip), vehicle: saline
[9] = dose: 30.0 mg/kg/injection, schedule: Q01DX005 (ip), vehicle: saline with Tween-80
[10] = dose: 60.0 mg/kg/injection, schedule: Q01DX005 (ip), vehicle: saline with Tween-80
[11] = dose: 120.0 mg/kg/injection, schedule: Q01DX005 (ip), vehicle: saline with Tween-80
[12] = dose: 100.0 mg/kg/injection, schedule: Q04DX002 (ip), vehicle: saline with Tween-80
[13] = dose: 200.0 mg/kg/injection, schedule: Q04DX002 (ip), vehicle: saline with Tween-80
[14] = dose: 400.0 mg/kg/injection, schedule: Q04DX002 (ip), vehicle: saline with Tween-80
[15] = dose: 50.0 mg/kg/injection, schedule: Q01DX005 (ip), vehicle: saline

SMILES: COc1cc2c(c(OC(C)=O)c1OC(C)=O)-c1ccc(SC)c(=O)cc1C(NC(C)=O)CC2 (configuration not stated)
- T/C (dose: 1.25 mg/kg/injection, schedule: Q01DX009 (ip), vehicle: Klucel (hydroxypropylcellulose) (HPC)): 110 % of control
- T/C (dose: 2.5 mg/kg/injection, schedule: Q01DX009 (ip), vehicle: Klucel (hydroxypropylcellulose) (HPC)): 105 % of control
- T/C (dose: 5.0 mg/kg/injection, schedule: Q01DX009 (ip), vehicle: Klucel (hydroxypropylcellulose) (HPC)): 93 % of control
- T/C (dose: 9.0 mg/kg/injection, schedule: Q01DX009 (ip), vehicle: Klucel (hydroxypropylcellulose) (HPC)): 100 % of control
- T/C (dose: 10.0 mg/kg/injection, schedule: Q01DX009 (ip), vehicle: Klucel (hydroxypropylcellulose) (HPC)): 105 % of control
- T/C (dose: 18.0 mg/kg/injection, schedule: Q01DX009 (ip), vehicle: Klucel (hydroxypropylcellulose) (HPC)): 89 % of control
- T/C (dose: 36.0 mg/kg/injection, schedule: Q01DX009 (ip), vehicle: Klucel (hydroxypropylcellulose) (HPC)): 100 % of control

SMILES: CC(C)CC(C)C1CCC(C)C1CCC(C)OC=O (configuration not stated)
- T/C [1]: 102 % of control
- T/C [2]: 114 % of control
- T/C [3]: 98 % of control

SMILES: CC[N]1c2cc(C(C)(C)C)cc(C(C)(C)C)c2[O][Sb]1([c]1ccccc1)([c]1ccccc1)[c]1ccccc1
- T/C [4]: 98 % of control
- T/C [5]: 100 % of control
- T/C [6]: 98 % of control

SMILES: CC1=C(O)COc2cc(C)ccc21
- T/C (dose: 100.0 mg/kg/injection, schedule: Q01DX001 (ip), vehicle: saline): 102 % of control
- T/C (dose: 200.0 mg/kg/injection, schedule: Q01DX001 (ip), vehicle: saline): 100 % of control
- T/C (dose: 400.0 mg/kg/injection, schedule: Q01DX001 (ip), vehicle: saline): 100 % of control

SMILES: CS(=O)(=O)OCCN(CCOS(C)(=O)=O)c1ccccc1
- T/C (dose: 1.56 mg/kg/injection, schedule: Q04DX003 (ip), vehicle: saline): 109 % of control
- T/C (dose: 3.13 mg/kg/injection, schedule: Q04DX003 (ip), vehicle: saline): 104 % of control
- T/C (dose: 6.25 mg/kg/injection, schedule: Q01DX009 (ip), vehicle: saline with Tween-80): 154 % of control
- T/C (dose: 6.25 mg/kg/injection, schedule: Q04DX003 (ip), vehicle: saline): 122 % of control
- T/C (dose: 12.5 mg/kg/injection, schedule: Q01DX009 (ip), vehicle: saline with Tween-80): 200 % of control
- T/C (dose: 25.0 mg/kg/injection, schedule: Q01DX009 (ip), vehicle: saline with Tween-80): 181 % of control
- T/C (dose: 25.0 mg/kg/injection, schedule: Q01DX009 (ip), vehicle: saline): 204 % of control
- T/C [7]: 204 % of control
- T/C [8]: 90 % of control

SMILES: Cc1ccc(C(O)(c2ccc(C)cc2)C2(O)CCN(C)CC2)cc1
- T/C (dose: 50.0 mg/kg/injection, schedule: Q01DX005 (ip), vehicle: Klucel (hydroxypropylcellulose) (HPC)): 107 % of control
- T/C (dose: 100.0 mg/kg/injection, schedule: Q01DX005 (ip), vehicle: Klucel (hydroxypropylcellulose) (HPC)): 97 % of control
- T/C (dose: 200.0 mg/kg/injection, schedule: Q01DX005 (ip), vehicle: Klucel (hydroxypropylcellulose) (HPC)): 92 % of control

SMILES: C=C(C)CC1C(=O)OC(=O)C1(CC(=C)C)CC(=C)C (configuration not stated)
- T/C [8]: 100 % of control
- T/C (dose: 100.0 mg/kg/injection, schedule: Q01DX009 (ip), vehicle: saline): 99 % of control
- T/C (dose: 200.0 mg/kg/injection, schedule: Q01DX009 (ip), vehicle: saline): 93 % of control

SMILES: COC(=O)C(NC(=O)C1CCCN1C(=O)OCc1ccccc1)C(C)C (stereo not drawn) (Cbz-Pro-Val-OMe; configuration not given here)
- T/C [4]: 98 % of control
- T/C [5]: 104 % of control
- T/C [6]: 107 % of control

SMILES: COc1cccc2cc(-n3nnc4ccccc43)c(=O)oc12
- T/C [9]: 94 % of control
- T/C [10]: 86 % of control and 91 % of control and 94 % of control
- T/C [11]: 94 % of control
- T/C (dose: 240.0 mg/kg/injection, schedule: Q01DX005 (ip), vehicle: saline with Tween-80): 86 % of control and 87 % of control

SMILES: O=C(Nc1ccc2c(c1)Cc1cc(NC(=O)C34CC5CC(CC(C5)C3)C4)ccc1-2)C12CC3CC(CC(C3)C1)C2
- T/C [12]: 88 % of control
- T/C [13]: 89 % of control
- T/C [14]: 92 % of control

SMILES: O=S(=O)(O)c1ccc2c(-c3ccccc3)c3ccccc3c(-c3ccccc3)c2c1
- T/C (dose: 60.0 mg/kg/injection, schedule: Q01DX005 (ip), vehicle: Klucel (hydroxypropylcellulose) (HPC)): 99 % of control
- T/C (dose: 120.0 mg/kg/injection, schedule: Q01DX005 (ip), vehicle: Klucel (hydroxypropylcellulose) (HPC)): 100 % of control
- T/C (dose: 240.0 mg/kg/injection, schedule: Q01DX005 (ip), vehicle: Klucel (hydroxypropylcellulose) (HPC)): 98 % of control

SMILES: C/C(CC(O)(c1ccccc1)c1ccccc1)=N/Sc1ccccc1
- T/C (dose: 100.0 mg/kg/injection, schedule: Q04DX003 (ip), vehicle: Klucel (hydroxypropylcellulose) (HPC)): 100 % of control
- T/C (dose: 200.0 mg/kg/injection, schedule: Q04DX003 (ip), vehicle: Klucel (hydroxypropylcellulose) (HPC)): 92 % of control
- T/C (dose: 400.0 mg/kg/injection, schedule: Q04DX003 (ip), vehicle: Klucel (hydroxypropylcellulose) (HPC)): 94 % of control

SMILES: CC1CN=C(c2ccc(NC(=O)NCCCCCCCCCNC(=O)Nc3ccc(C4=NCC(C)N4)cc3)cc2)N1 (configuration not stated)
- T/C (dose: 12.5 mg/kg/injection, schedule: Q01DX005 (ip), vehicle: saline + Tween-80 + alcohol): 106 % of control and 110 % of control
- T/C (dose: 25.0 mg/kg/injection, schedule: Q01DX005 (ip), vehicle: saline + Tween-80 + alcohol): 105 % of control and 118 % of control
- T/C (dose: 50.0 mg/kg/injection, schedule: Q01DX005 (ip), vehicle: saline + Tween-80 + alcohol): 110 % of control and 121 % of control
- T/C (dose: 100.0 mg/kg/injection, schedule: Q01DX005 (ip), vehicle: saline + Tween-80 + alcohol): 108 % of control

SMILES: Cn1c2ccccc2c2nnc(N/N=C/c3ccc([N+](=O)[O-])o3)nc21
- T/C (dose: 100.0 mg/kg/injection, schedule: Q01DX001 (ip), vehicle: saline with Tween-80): 90 % of control
- T/C (dose: 200.0 mg/kg/injection, schedule: Q01DX001 (ip), vehicle: saline with Tween-80): 91 % of control
- T/C (dose: 400.0 mg/kg/injection, schedule: Q01DX001 (ip), vehicle: saline with Tween-80): 96 % of control

SMILES: CC1CCC(C(C)C)C(OC(=O)c2ccc[n+](C)c2)C1 (configuration not stated)
- T/C (dose: 12.5 mg/kg/injection, schedule: Q01DX005 (ip), vehicle: saline): 105 % of control
- T/C (dose: 25.0 mg/kg/injection, schedule: Q01DX005 (ip), vehicle: saline): 116 % of control
- T/C [15]: 100 % of control and 105 % of control

SMILES: OC1(C(O)(c2ccc(-c3ccccc3)cc2)c2ccc(-c3ccccc3)cc2)CCCCC1
- T/C [1]: 90 % of control
- T/C [2]: 87 % of control

SMILES: O=S(=O)(NO)c1cccc(S(=O)(=O)NO)c1
- T/C [7]: 110 % of control
- T/C (dose: 50.0 mg/kg/injection, schedule: Q04DX003 (ip), vehicle: saline): 115 % of control
- T/C (dose: 100.0 mg/kg/injection, schedule: Q04DX003 (ip), vehicle: saline): 110 % of control

SMILES: N#CC(C#N)=CN(CCO)CCO
- T/C [15]: 99 % of control
- T/C (dose: 100.0 mg/kg/injection, schedule: Q01DX005 (ip), vehicle: saline): 99 % of control
- T/C (dose: 200.0 mg/kg/injection, schedule: Q01DX005 (ip), vehicle: saline): 97 % of control

SMILES: Cc1c2c(cc3c4ccccc4n(C)c13)C(=O)c1ccccc1C2=O
- T/C [12]: 90 % of control
- T/C [13]: 87 % of control
- T/C [14]: 92 % of control

SMILES: C=CCSC(C)=O
- T/C [9]: 98 % of control
- T/C [10]: 100 % of control
- T/C [11]: 99 % of control

SMILES: Clc1ccc(C[P+](c2ccccc2)(c2ccccc2)c2ccccc2)c(Cl)c1
- T/C (dose: 1.25 mg/kg/injection, schedule: Q01DX009 (ip), vehicle: saline sonified): 109 % of control
- T/C (dose: 2.5 mg/kg/injection, schedule: Q01DX009 (ip), vehicle: saline sonified): 109 % of control
- T/C (dose: 5.0 mg/kg/injection, schedule: Q01DX009 (ip), vehicle: saline sonified): 118 % of control

SMILES: Oc1ccc2[nH]c3cc4ccncc4cc3c2c1
- T/C (dose: 25.0 mg/kg/injection, schedule: Q04DX002 (ip), vehicle: saline with Tween-80): 106 % of control
- T/C (dose: 50.0 mg/kg/injection, schedule: Q04DX002 (ip), vehicle: saline with Tween-80): 97 % of control
- T/C [12]: 122 % of control
- T/C [13]: 115 % of control

SMILES: [O-][n+]1c(Cl)c(Cl)[n+]([O-])c2[nH]c(C(F)(F)F)nc21
- T/C (dose: 25.0 mg/kg/injection, schedule: Q01DX005 (ip), vehicle: saline with Tween-80): 103 % of control
- T/C [1]: 96 % of control
- T/C [2]: 102 % of control
- T/C [3]: 90 % of control and 96 % of control
